From patent US12157745B2, “Heterocyclic systems and pharmaceutical compositions thereof” (University of Sharjah, priority 2018, dated 2024)

Tests used:
[1] = system: Bid, Bax, caspase-3 & -9, Bcl-xL; assay: Western blot and annexin V, pro- and anti-apoptotic proteins; type: cell-based; settings: western blot, confirmed by annexin V study
Description: Over-expression of this oncogene could result in tumor cell proliferation and migration and therefore its inhibition may halt tumor growth. Other pro-apoptotic (Bid, Bax, caspase-3 & -9) and anti-apoptotic (Bcl-xL) proteins were also modulated by compound it as evident from western blot analysis and as confirmed by annexin V study (FIG. 7).
(§1) The MCF-7, SKBR3 and HCT116 total cell lysate were prepared after 24 hours of treatment with compound it at IC50 and DIC50 doses by using 1× laemmli buffer. Total protein concentration was then estimated for each sample and 15-30 μg of protein lysate were loaded equally on 12% SDS-PAGE gel in order to detect various proteins expression levels. In short, the membrane was incubated with different primary antibodies (as mentioned in above section) (1:1000) overnight after blocking with 5% non-fat milk solution for 1 hour. The membrane was then re-probed with respective mouse/rabbit secondary antibodies (1:2000) for 1 h, and later developed by enhanced chemiluminescence (ECL) method by using a Chemidoc MP (BioRad, Germany).
(§2) The apoptotic level was measured using a kit method as per supplier's protocol. […] 2×10^6 cells were counted and re-suspended in 1 mL of binding buffer (1×). […] 400 μL of IX binding buffer was finally added to the cells and analyzed immediately by using by a flow cytometer (BD, Accuri C6).

[2] = system: H2AX; assay: DNA damage study, H2AX phosphorylation (western blot); type: cell-based; settings: SKBr3 cells; IC50 and Double IC50 treatments
From the text: DNA damage studies: One of the main properties of any efficient chemotherapeutic drug is to induce DNA damage in tumor cells either directly or indirectly by generating harmful DNA crosslinks, which can lead to apoptosis and impact the cell by disrupting gene function and/or impairing transcription, DNA replication, and cell proliferation. To gain additional knowledge of compound it's anticancer properties, its mechanism of action to induce DNA damage was studied in breast and colon cancer cells (FIG. 8). One of the critical post-translational modifications of chromatin is phosphorylation of multiple proteins involved in DNA damage pathway and one of the earliest events during DNA double strand break is the phosphorylation of Ser139 on the specialized histone called H2AX, which is then referred to as γ-H2AX.
The MCF-7, SKBR3 and HCT116 total cell lysate were prepared after 24 hours of treatment with compound it at IC50 and DIC50 doses by using 1× laemmli buffer. Total protein concentration was then estimated for each sample and 15-30 μg of protein lysate were loaded equally on 12% SDS-PAGE gel in order to detect various proteins expression levels. In short, the membrane was incubated with different primary antibodies (as mentioned in above section) (1:1000) overnight after blocking with 5% non-fat milk solution for 1 hour. […]

[3] = system: SKBr3 cells; assay: Apoptosis study (western blot, caspase-3 activation); type: cell-based; settings: multi-drug resistant breast cancer cells SKBr3
Description: Apoptosis studies: The molecular effect of compound it was evaluated by investigating its apoptotic (FIG. 5) and cell cycle arresting potentials (FIGS. 6A and 6B). Compound it arrests the cells at G0/G1 phase in MCF-7 cells (>15%) with respect to control cells after 16, 24, 48, and 72 hours of treatment.
as §1, §2

[4] = system: p-Chk2; assay: DNA damage study, p-Chk2 expression (western blot); type: cell-based
Description: (§3) However, recruitment of phosphatidylinositol-3-kinase (PI3K) family members to the site of DNA damage is the first step of DNA damage response mechanisms and the phosphorylation of ataxia telangiectasia-mutated (ATM) or ATM-Rad3-related (ATR) kinases often follows. […] Overall, compound it was able to induce DNA damage in an ATR-Chk2 dependent pathway in aggressive breast cancer phenotypes.
as §1

[5] = system: p21; assay: Western blot, p21 expression; type: cell-based; settings: HCT116 colon cancer cells
Description: as §1

[6] = molecular target: T1, glutathione reductase (Homo sapiens, UniProt P00390); assay: DARTS proteomic assay; type: binding; settings: dose-dependent manner, FIG. 12
T1 construct: HEK293T cells were lysed using M-PER; endogenous in cells; host or cells: HEK293T lysate
T1 sequence (P00390 44-522): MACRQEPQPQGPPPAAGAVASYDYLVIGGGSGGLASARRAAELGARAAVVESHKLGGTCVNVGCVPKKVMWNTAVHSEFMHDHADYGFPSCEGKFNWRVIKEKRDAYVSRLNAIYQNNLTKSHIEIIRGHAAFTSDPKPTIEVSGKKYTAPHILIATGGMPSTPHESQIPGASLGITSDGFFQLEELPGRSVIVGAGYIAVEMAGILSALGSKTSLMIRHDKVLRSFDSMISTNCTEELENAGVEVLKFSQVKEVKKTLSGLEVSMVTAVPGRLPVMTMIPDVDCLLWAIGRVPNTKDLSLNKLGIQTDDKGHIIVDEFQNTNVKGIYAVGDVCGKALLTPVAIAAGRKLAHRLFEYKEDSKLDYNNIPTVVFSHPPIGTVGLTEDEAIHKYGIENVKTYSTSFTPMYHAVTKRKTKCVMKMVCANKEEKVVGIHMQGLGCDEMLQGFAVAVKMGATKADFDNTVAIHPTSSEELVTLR
Description: The unique properties of compound it prompted an in-depth analysis to explore its potential novel targets.
A DARTS assay was used to assess the binding of compound 1t. HEK293T cells were lysed using M-PER (Thermo Scientific, Inc.) supplemented with protease and phosphatase inhibitors (Lysis buffer). 4.7 mg/mL of protein and TNC buffer (10 mM Tris, 140 mMNaCl, 5 mM CaCl2)) was added, compound it was diluted in DMSO to 3 different concentrations (0.01 μM, 0.1 μM, 1 μM) and incubated for one hour at room temperature. Trypsin (Promega) was added and incubated for 3 hours at 37° C. Thereafter, M-PER lysis buffer was added and the samples were concentrated with Microcon 10K centrifugal filters. The proteins were identified by gel electrophoresis liquid chromatography mass spectroscopy (GelLCMS).

[7] = system: ATR; assay: DNA damage study, ATR phosphorylation (western blot); type: cell-based; settings: also its downstream target p53
Description: as §3, §1

CC1(C)[C@H]2COc3ccc4ccccc4c3[C@H]2N=C2SC(c3ccccc3)=C(c3ccccc3)N21 [Compound 1t]
Pro-apoptotic (Bid, Bax, caspase-3 & -9) and anti-apoptotic (Bcl-xL) proteins [1]: modulated
H2AX phosphorylation [2]: induced H2AX phosphorylation
Apoptotic induction [3]: mitochondrial-mediated apoptotic induction with caspase-3 activation
Checkpoint kinase p-Chk2 expression [4]: elevated levels
Expression of p21 [5]: overexpressed
Modulation of glutathione reductase function [6]: modulated the functions
ATR phosphorylation [7]: phosphorylates ATR
